Earlier results, collected in patent US20090220426A1, “Biodegradable Inverted-Opal Structure, Method for Manufacturing and Using the Same, and Medical Implant Comprising the Biodegradable Inverted-Opal Structure” (KINKI UNIVERSITY, priority 2006, published 2009).

Test system: mouse

Structure (SMILES) | L.D.50 (oral mouse)
OCCCCCO [1,5-pentanediol] | 25,500 mg/kg
OCC(CO)(CO)CO [pentaerythritol] | 25,500 mg/kg
